Measurements from patent US20120046333A1, “Methods and Compositions of PI-3 Kinase Inhibitors for Treating Fibrosis” (Oncothyreon Incorporated, priority 2009, published 2012).
Entries after “also recorded” stand apart in the source; their conditions may differ.

How the values were obtained:
[1] = tested on: phosphorylated Akt (P-Akt) Ser 473; assay: Western blot of TGFα-induced phosphorylation of Akt in lung homogenates; format: in vivo; conditions: 1 day of Dox, PX-866 pretreatment 3 mg/kg by gavage, vs vehicle-treated transgenic mice
From the text: (§1) CCSP-rtTA activator mice expressing the reverse tetracycline-responsive transactivator (rtTA) under control of the 2.3-kb rat Clara Cell Secretory Protein (CCSP), a.k.a. secretoglobin, family 1A, member 1 (Scgblal) gene promoter were mated to conditional doxycycline (Dox) regulated transgenic mice containing the human TGFα cDNA under the control of seven copies of the tetracycline operon ((TetO)7-cmv TGFα) plus a minimal CMV promoter. Single transgenic (CCSP-rtTA+/−) and bitransgenic CCSP-rtTA+/−/(TetO)7-cmv TGFα+/− mice were produced within the same litter by mating homozygous CCSP-rtTA+/+ mice to hemizygous (TetO)?-cmv TGFα+/− mice. All mice were derived from the FVB/NJ inbred strain. Mice were maintained in virus-free containment. […]
Western Blots: Western blot analysis was performed on lung homogenates as previously described. Blots were incubated with antibodies against total and phosphorylated Akt (Ser 473 and Thr 308, Cell Signaling Technology) and quantified using the volume integration function on a PhosphorImager software Imagequant 5.2 (Molecular Dynamics, Sunnyvale, Calif.).
PX-866 inhibits TGFα-Induced Phosphorylation of Akt: CCSP-rtTA/otet-TGFαmice were treated with 1 day of Dox to induce TGFα expression. Phosphorylated Akt (P-Akt) levels for Ser 473 as measured by Western blot analysis increased over 5-fold compared to Dox-treated control mice.

[2] = tested on: CCSP-rtTA/otet-TGFα transgenic mice; assay: Prevention of TGFα-induced pulmonary fibrosis, PX-866 given at initiation of TGFα induction; format: in vivo; conditions: 4 weeks of Dox, PX-866 from initiation of TGFα induction
From the text: as §1, with “strain.” for “strain. Mice were maintained in virus-free containment.”
(§2) Lung Histology, Immunostaining and Total Lung Collagen: Lungs were inflation fixed as previously described. […] Total lung collagen was determined by quantifying total soluble collagen (Sircol Collagen Assay, Biocolor, Ireland) as previously described.
(§3) Pulmonary Mechanics: Lung mechanics were assessed on mice with a computerized Flexi Vent system (SCIREQ, Montreal, Canada). […] The ventilation mode was changed to forced oscillatory signal (0.5-19.6 Hz), and respiratory impedance was measured. […]
(§4) Statistics: Means (+/−SEM) were calculated and plotted for each variable, by mouse group (CCSP/-Vehicle, CCSP/TGFα Vehicle, CCSP/TGFα PX-866). Data were assessed for normality using plots and the Shapiro-Wilk test. […]

[3] = tested on: CCSP-rtTA/otet-TGFα transgenic mice; assay: Progression of established TGFα-induced pulmonary fibrosis, PX-866 given after 4 weeks of Dox; format: in vivo; conditions: 8 weeks of Dox
From the text: CCSP-rtTA activator mice expressing the reverse tetracycline-responsive transactivator (rtTA) under control of the 2.3-kb rat Clara Cell Secretory Protein (CCSP), a.k.a. secretoglobin, family 1A, member 1 (Scgblal) gene promoter were mated to conditional doxycycline (Dox) regulated transgenic mice containing the human TGFα cDNA under the control of seven copies of the tetracycline operon ((TetO)7-cmv TGFα) plus a minimal CMV promoter. Single transgenic (CCSP-rtTA+/−) and bitransgenic CCSP-rtTA+/−/(TetO)7-cmv TGFα+/− mice were produced within the same litter by mating homozygous CCSP-rtTA+/+ mice to hemizygous (TetO)?-cmv TGFα+/− mice. All mice were derived from the FVB/NJ inbred strain. Mice were maintained in virus-free containment. All animal protocols were reviewed and approved by the Institutional Animal Use and Care Committee of the Cincinnati Children's Hospital Research Foundation. To induce TGFα expression, Dox (Sigma, St. Louis, Mo.) was administered in the drinking water at a final concentration of 0.5 mg/ml and in food (62.5 mg/kg). Water was replaced three times per week. Mice were genotyped as known in the art.
The PI3K inhibitor PX-866 (ProIX Pharmaceuticals, Tucson, Ariz.) was suspended into 5% EtOH to make a 5 mg/ml stock solution. Three hours prior to administration, food and water were removed from cages. Mice were then anesthetized (Isoflurane; Abbott Labs, Chicago, Ill.), and sterile vehicle or drug (3 mg/kg) was administered by gavage using a 20 gauge feeding catheter (Harvard Apparatus, Holliston, Mass.). Mice were treated with vehicle or PX-866 every other day for up to 4 weeks. Mice were killed with pentobarbital sodium (65 mg/ml) euthanasia solution (Fort Dodge Animal Health, Fort Dodge, Iowa) 1 day or 4 weeks after Dox and vehicle or PX-866 treatment.
as §2, §3, §4
Weights of mice in four different groups were measured at Baseline and at evenly spaced intervals during the next eight weeks, once per week. […] Differences in selected (a priori) Group*Time means were calculated and tested using a simulation-based adjustment for multiple comparisons. […]

[4] = aqueous solutions at 37° C. or 0° C. at neutral pH; cited from earlier work
[5] = PX-866 from 4 weeks after TGFα induction

SMILES	TGFα-induced phosphorylation of Akt (P-Akt, Ser 473) [1]	lung mechanics (airway resistance, airway and tissue elastance, compliance) [2]	lung fibrosis by histology [3, 5]	lung mechanics (airway resistance, airway and tissue elastance, compliance) [3, 5]	total lung collagen [3, 5]	body weight ([3]; PX-866 from beginning of week 5)	stability in aqueous solution [4]
C=CCN(/C=C1/C(=O)O[C@H](COC)[C@@]2(C)C1=C(O)C(=O)C1=C2[C@H](OC(C)=O)C[C@]2(C)C(=O)CC[C@@H]12)CC=C [PX-866]	prevented TGFα-induced increases in P-Akt; also recorded: prevented increased phosphorylation of Akt	did not show any differences in lung mechanics; also recorded: prevented increases in airway resistance, airway and tissue elastance, and decreases in compliance	reduced pleural fibrosis as well as reduced perivascular and peribronchial fibrosis; also recorded: reduced fibrosis on lung histology; also recorded: attenuation of fibrosis	significantly improved compared with vehicle-treated mice; also recorded: improved lung mechanics; also recorded: reduced increases in airway resistance, and airway and tissue elastance, and decreases in compliance	reduced lung collagen levels; also recorded: unchanged compared with mice taken off Dox after 4 weeks	prevented further body weight loss; also recorded: normalization of body weights; also recorded: did not have changes in body weight	–
COC[C@H]1OC(=O)c2coc3c2[C@@]1(C)C1=C(C3=O)[C@@H]2CCC(=O)[C@@]2(C)C[C@H]1OC(C)=O [Wortmannin]	–	–	–	–	–	–	subject to decomposition by hydrolytic opening of the furan ring
